Molecules are shown by their SMILES.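 Grown in 96-well plates, cells were treated for 48 hours with each compound at five concentrations. Insufficient inhibition: endpoint recorded as highest concentration tested. GI50 marks 50% less growth.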 The source made the active and inactive calls. No stated cut-off is given here; in the data, active = GI50 up to about 1.1 µM and inactive = higher.

Among the test systems are A498; OVCAR-3; HCT-116; SF-268; HCT-15; HL-60; SF-295; NCI-H460; IGROV-1; ACHN; KM12; CCRF-CEM; TK-10; SK-MEL-5; COLO 205; RPMI-8226; HOP-92.
Holding throughout (test): inhibition of tumour cell growth, NCI panel, 48 h

With `O=C(NN1C(=O)C(Cl)C1c1cccc(O)c1)c1ccccc1O` (stereo not drawn), the GI50 in the assay with A498 is > 100 µM (inactive); in the assay on OVCAR-3, > 100 µM (inactive); with HCT-116 it was > 100 µM (inactive); with SF-268 it was > 100 µM (inactive); in the assay with HCT-15, over 100 µM; in the assay on HL-60, > 100 µM (inactive). For the same compound, the GI50 in the assay with SF-295, in the assay with NCI-H460, in the assay with IGROV-1, in the assay with ACHN, in the assay with KM12 and in the assay on CCRF-CEM was > 100 µM (inactive) in each case. For the same compound, the GI50 in the assay with TK-10 and in the assay with SK-MEL-5 was > 100 µM (inactive) throughout.

Take `CCN(CC)CCNC(=O)C1COc2ccc(-c3cc(=O)c4ccccc4o3)cc2O1` (stereo not drawn): the GI50 in the assay with A498 was 16 µM (inactive); in the assay with OVCAR-3 it was 21.2 µM (inactive); in the assay with HCT-116, 17.8 µM (inactive); in the assay with SF-268, 19.5 µM (inactive); in the assay on HCT-15 it was 15.5 µM; in the assay with HL-60, 13.2 µM (inactive). Besides, the GI50 was 17.9 µM (inactive) with COLO 205; 18.5 µM (inactive) in the assay on SF-295; 16.8 µM (inactive) in the assay on NCI-H460; 28.9 µM (inactive) in the assay on IGROV-1; 22.5 µM (inactive) with RPMI-8226; 18.2 µM (inactive) in the assay on KM12. Further, the GI50 in the assay with CCRF-CEM is 19.1 µM (inactive); with SK-MEL-5, 20.9 µM (inactive); in the assay on HOP-92, 19.1 µM (inactive).

Regarding `C=C=C(C(=O)OC)[S+]([O-])c1ccccc1[N+](=O)[O-]` (stereo not drawn), the GI50 is > 100 µM (inactive) in the assay with A498; > 100 µM (inactive) in the assay on OVCAR-3; 89.9 µM (inactive) with HCT-116; > 100 µM (inactive) in the assay with SF-268; 59 µM in the assay on HCT-15; 75.2 µM (inactive) with HL-60. The GI50 in the assay with COLO 205, with SF-295, in the assay with NCI-H460, in the assay with IGROV-1, in the assay on RPMI-8226 and in the assay with ACHN was > 100 µM (inactive) in each case. Moreover, the GI50 with KM12 was > 100 µM (inactive); in the assay with CCRF-CEM, 24.7 µM (inactive); in the assay with TK-10, > 100 µM (inactive); with SK-MEL-5 it was > 100 µM (inactive).

Regarding `CC(C)C1N2CCCCC2[C@@H]2c3[nH]c4ccccc4c3CCN12` (stereo partly drawn), the GI50 in the assay with A498 is > 100 µM (inactive); with OVCAR-3 it was > 100 µM (inactive); in the assay with HCT-116 it was > 100 µM (inactive); in the assay on SF-268 it was > 100 µM (inactive); with HCT-15, over 100 µM; in the assay with HL-60, > 100 µM (inactive). The GI50 in the assay with COLO 205, in the assay with SF-295, with NCI-H460, in the assay with IGROV-1, in the assay on RPMI-8226 and with ACHN was > 100 µM (inactive) each time. Also, the GI50 in the assay with CCRF-CEM, in the assay on SK-MEL-5 and with HOP-92 was > 100 µM (inactive) each time.

As to `CC(=O)NC(CCCCN(Cc1ccccc1)C(=O)N(C)N=O)C(=O)NCc1ccccc1` (stereo not drawn), the GI50 is > 100 µM (inactive) in the assay with A498; > 100 µM (inactive) in the assay on OVCAR-3; 71.3 µM (inactive) in the assay with HCT-116; 38.9 µM (inactive) with SF-268; over 100 µM in the assay on HCT-15; 88.3 µM (inactive) with COLO 205. Moreover, the GI50 in the assay on SF-295 was > 100 µM (inactive); in the assay with NCI-H460 it was 88.7 µM (inactive); in the assay with IGROV-1, > 100 µM (inactive); with RPMI-8226, 40.6 µM (inactive); in the assay with ACHN, > 100 µM (inactive); with KM12 it was > 100 µM (inactive). The GI50 in the assay on CCRF-CEM is 59.6 µM (inactive); in the assay on TK-10, > 100 µM (inactive); with SK-MEL-5 it was 47.1 µM (inactive); in the assay on HOP-92, 61.8 µM (inactive).

Take `COC(=O)Cc1nn2c(nc1=O)sc1ccc3ccccc3c12`: the GI50 is > 100 µM (inactive) with A498; > 100 µM (inactive) in the assay with OVCAR-3; > 100 µM (inactive) with HCT-116; over 100 µM in the assay on HCT-15; > 100 µM (inactive) with HL-60; > 100 µM (inactive) in the assay on COLO 205. Further, the GI50 in the assay with NCI-H460 is 62.7 µM (inactive); with IGROV-1, > 100 µM (inactive); with ACHN, 56.9 µM (inactive); in the assay with KM12, > 100 µM (inactive); in the assay on CCRF-CEM, > 100 µM (inactive); with SK-MEL-5, > 100 µM (inactive). The GI50 with HOP-92 is 63.8 µM (inactive).

For `COC1(OC)CC2C=C(S(=O)(=O)c3ccccc3)C1N(Cc1ccccc1)C2=O` (stereo not drawn), the GI50 in the assay with A498 is 22.4 µM (inactive); with OVCAR-3 it was 17.1 µM (inactive); in the assay on HCT-116, 13.4 µM (inactive); in the assay with SF-268, > 100 µM (inactive); with HL-60, 16.2 µM (inactive); with COLO 205, 19.9 µM (inactive). Further, the GI50 was 50.9 µM (inactive) with SF-295; 29.3 µM (inactive) with NCI-H460; 37.2 µM (inactive) in the assay on IGROV-1; 41.3 µM (inactive) in the assay with ACHN; 24.7 µM (inactive) in the assay on KM12; 16.2 µM (inactive) in the assay on CCRF-CEM. Moreover, the GI50 with TK-10 is 26.6 µM (inactive); with SK-MEL-5, 32.3 µM (inactive); in the assay with HOP-92, 28.3 µM (inactive).

With `Nc1nc(SCc2ccc([N+](=O)[O-])cc2)nc2c1ncn2C1OC(COP(=O)(O)O)C(O)C1O` (stereo not drawn), the GI50 was > 100 µM (inactive) in the assay with A498; > 100 µM (inactive) in the assay with OVCAR-3; > 100 µM (inactive) with HCT-116; > 100 µM (inactive) in the assay with SF-268; over 100 µM in the assay on HCT-15; > 100 µM (inactive) in the assay on HL-60. Moreover, the GI50 with COLO 205, with SF-295, in the assay with NCI-H460, in the assay on IGROV-1, with ACHN and in the assay on KM12 was > 100 µM (inactive) throughout. The GI50 in the assay with CCRF-CEM, with TK-10, in the assay on SK-MEL-5 and in the assay on HOP-92 was > 100 µM (inactive) each time.

With `O=C1C=CC2(C=C1)C[C@H](NC(=O)C(F)(F)F)C(=O)O2`, the GI50 is > 100 µM (inactive) in the assay with A498; > 100 µM (inactive) in the assay on OVCAR-3; 58.9 µM (inactive) in the assay on HCT-116; 37.9 µM (inactive) in the assay on SF-268; 31.6 µM in the assay with HCT-15; 14.2 µM (inactive) in the assay on HL-60. In addition, the GI50 in the assay on COLO 205 was 29.6 µM (inactive); in the assay with SF-295, > 100 µM (inactive); in the assay with NCI-H460 it was > 100 µM (inactive); in the assay on RPMI-8226 it was 31.3 µM (inactive); in the assay with ACHN, > 100 µM (inactive); with KM12 it was 73.5 µM (inactive). Besides, the GI50 in the assay with CCRF-CEM was 16.4 µM (inactive); in the assay on TK-10 it was > 100 µM (inactive); in the assay on SK-MEL-5 it was 76.2 µM (inactive).

For `O=C(CSc1nc(=O)c(-c2ccccc2NC(=O)C(F)(F)F)n[nH]1)NC(=O)Nc1ccccc1`, the GI50 with OVCAR-3 was > 100 µM (inactive); in the assay on HCT-116, > 100 µM (inactive); with SF-268, 56.6 µM (inactive); in the assay with HCT-15 it was over 100 µM; with COLO 205, > 100 µM (inactive); with SF-295 it was > 100 µM (inactive). For the same compound, the GI50 with NCI-H460 is 72.6 µM (inactive); in the assay on IGROV-1 it was > 100 µM (inactive); in the assay on KM12 it was > 100 µM (inactive); in the assay on CCRF-CEM it was 94.8 µM (inactive); in the assay with TK-10, 45.9 µM (inactive); in the assay with SK-MEL-5, > 10 µM (inactive). Further, the GI50 with HOP-92 was > 100 µM (inactive).
